Data taken from the supplement of paper PMC10307832.

Experiments:
Assay in all cases: relative viability (nuclei count vs DMSO), 5 days (fraction); higher = more cells survive
[1] = compound: CN1CCN(c2ccc3nc(-c4c(N)c5c(F)cccc5[nH]c4=O)[nH]c3c2)CC1 [Dovitinib] + C[C@@H](Oc1cc(-c2cnn(C3CCNCC3)c2)cnc1N)c1c(Cl)ccc(F)c1Cl [Crizotinib] (partner 1 µM)
In short: (§1)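 The day after seeding in 1536-well plates, lung cancer cell lines were treated by pin tool with a single drug, or with a fixed anchor-drug dose together with five library-drug doses (not always all listed) in √10 steps. After 5 days, a combined fix-and-stain solution (final 0.05% Triton X-100, 1% formaldehyde, 1 ug/ml Hoechst) was added. Nuclei counted on 4× images gave relative viability as treated counts over vehicle counts, reported as the median of duplicate plates.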

[2] = compound: CN1CCN(c2ccc3nc(-c4c(N)c5c(F)cccc5[nH]c4=O)[nH]c3c2)CC1 [Dovitinib] + CC(=O)c1c(C)c2cnc(Nc3ccc(N4CCNCC4)cn3)nc2n(C2CCCC2)c1=O [Palbociclib] (partner 0.5 µM)
In short: as §1

[3] = compound: CN1CCN(c2ccc3nc(-c4c(N)c5c(F)cccc5[nH]c4=O)[nH]c3c2)CC1 [Dovitinib] + NC(=O)Nc1cc(-c2cccc(F)c2)sc1C(=O)N[C@H]1CCCNC1 [AZD7762] (partner 0.2 µM)
In short: as §1

[4] = compound: CN1CCN(c2ccc3nc(-c4c(N)c5c(F)cccc5[nH]c4=O)[nH]c3c2)CC1 [Dovitinib] + O=C(CCCCCCC(=O)Nc1ccccc1)NO [Vorinostat] (partner 1 µM)
In short: as §1

Cell Line | relative viability ([1]; first compound 0.02 µM) | relative viability ([1]; first compound 0.06325 µM) | relative viability ([1]; first compound 0.2 µM) | relative viability ([1]; first compound 0.6325 µM) | relative viability ([1]; first compound 2 µM) | relative viability ([2]; first compound 0.02 µM) | relative viability ([2]; first compound 0.06325 µM) | relative viability ([2]; first compound 0.2 µM) | relative viability ([2]; first compound 0.6325 µM) | relative viability ([2]; first compound 2 µM) | relative viability ([3]; first compound 0.02 µM) | relative viability ([3]; first compound 0.06325 µM) | relative viability ([3]; first compound 0.2 µM) | relative viability ([3]; first compound 0.6325 µM) | relative viability ([3]; first compound 2 µM) | relative viability ([4]; first compound 0.02 µM) | relative viability ([4]; first compound 0.06325 µM) | relative viability ([4]; first compound 0.2 µM) | relative viability ([4]; first compound 0.6325 µM) | relative viability ([4]; first compound 2 µM)
EBC-1 | 0.177 | 0.212 | 0.193 | 0.162 | 0.208 | – | – | – | – | – | – | – | – | – | – | – | – | – | – | –
EKVX | 0.937 | 0.975 | 1.08 | 0.988 | 0.906 | 0.394 | 0.378 | 0.511 | 0.412 | 0.364 | 0.569 | 0.775 | 0.694 | 0.755 | 0.684 | 0.799 | 0.776 | 0.836 | 0.75 | 0.739
EMC-BAC-2 | 0.702 | 0.699 | 0.749 | 0.62 | 0.776 | 0.551 | 0.493 | 0.539 | 0.502 | 0.518 | 1.21 | 1.06 | 1.1 | 1.08 | 1.16 | 0.512 | 0.449 | 0.422 | 0.522 | 0.517
EPLC-272H | 0.799 | 0.994 | 0.981 | 1.09 | 0.972 | 0.314 | 0.331 | 0.314 | 0.336 | 0.328 | 0.281 | 0.218 | 0.197 | 0.218 | 0.239 | 0.564 | 0.522 | 0.434 | 0.402 | 0.367
H3255 | 0.898 | 0.903 | 0.854 | 0.929 | 0.871 | 0.301 | 0.291 | 0.298 | 0.325 | 0.281 | 0.966 | 0.907 | 1 | 0.89 | 0.809 | 0.684 | 0.886 | 0.862 | 0.778 | 0.711
HARA | 1.07 | 1.08 | 0.985 | 1.1 | 1.07 | 0.29 | 0.234 | 0.311 | 0.254 | 0.258 | 0.334 | 0.257 | 0.381 | 0.211 | 0.315 | 0.553 | 0.542 | 0.645 | 0.676 | 0.569
HCC-15 | 0.756 | 0.841 | 0.719 | 0.79 | 0.812 | 0.738 | 0.708 | 0.717 | 0.694 | 0.708 | 1.05 | 1.17 | 1.1 | 1.19 | 1.32 | 0.931 | 0.873 | 0.815 | 0.837 | 0.85
HCC-44 | 0.668 | 0.793 | 0.76 | 0.745 | 0.777 | 0.93 | 0.994 | 0.969 | 0.985 | 0.95 | 0.979 | 0.97 | 1.03 | 0.955 | 0.975 | 1.08 | 1.1 | 1.08 | 1.09 | 1.08
HCC-78 | 0.334 | – | 0.356 | 0.347 | 0.363 | 0.437 | 0.468 | 0.511 | 0.54 | 0.522 | 0.71 | 0.481 | 0.674 | 0.699 | 0.489 | 0.413 | 0.415 | 0.39 | 0.533 | 0.431
